Measured values published in article PMC8010095, “Discovery of novel antituberculosis agents among 3-phenyl-5-(1-phenyl-1H-[1,2,3]triazol-4-yl)-[1,2,4]oxadiazole derivatives targeting aminoacyl-tRNA synthetases” (Scientific Reports, 2021).
Converted amounts (≈) assume the structure as drawn.

Key:
[1] = tested on: rifampin-resistant strain H37Rv (rpoB^S450L) (ATCC #35,838); type: cell-based, Mycobacterium tuberculosis
[2] = tested on: moxifloxacin-resistant strain H37Rv (gyrA^D94K) (MOX3); type: cell-based, Mycobacterium tuberculosis
[3] = tested on: isoniazid-resistant H37Rv (katG^del) (MS015); test: microbe, parasite or virus in culture; type: cell-based; conditions: > 80% reduction in growth, screened at 20, 2 and 0.2 mg/L, 7H9 complete medium
[4] = tested on: M. tuberculosis mono-resistant strains; test: microbe, parasite or virus in culture; type: cell-based

Row | SMILES | Growth inhibition cutoff, H37Rv (rpoB^S450L) [1] | Growth inhibition cutoff, H37Rv (gyrA^D94K) [2] | Growth inhibition cutoff, H37Rv (katG^del) [3] | growth inhibition cutoff [4] | MIC ([3]; Mycobacterium tuberculosis, H37RV, read-out: Growth inhibition cutoff, H37Rv (katG^del)) | MIC ([4]; Mycobacterium tuberculosis, read-out: growth inhibition cutoff)
1 | COc1cccc(-n2nnc(-c3nc(-c4ccc(F)cc4)no3)c2N)c1 [Compound 20] | 2 to 20 mg/L | 2 to 20 mg/L | > 20 mg/L | 5.7 to 57 µM | – | –
2 | COc1ccc(Cl)cc1-n1nnc(-c2nc(-c3ccc(F)cc3)no2)c1N [Compound 27] | 2 to 20 mg/L | > 20 mg/L | – | – | > 20 µg/mL | 5.17 to 51.7 µM (≈ 2 to 20 µg/mL)
